Where two headings read alike, the source gives them in different places.
Experiments:
[1] = tested on: TR-iBRB2 cells; assay: Effect of compounds on [3H]amantadine uptake by TR-iBRB2 cells; type: in vitro ADME, rat; conditions: for activity at 200 µM / activity at 2500 µM: Rattus norvegicus, 0.05 h, read-out: [3H]amantadine uptake, % of Control, TR-iBRB2
Description: (§1) In 10% fetal bovine serum (FBS; Merck, Darmstadt, Germany)-containing Dulbecco’s modified Eagle’s medium (DMEM; Nissui Pharmaceutical, Tokyo, Japan) with 20 mM NaHCO3, 0.19 mM benzylpenicillin potassium, and 0.14 mM streptomycin sulfate, TR-iBRB2 cells (passage number 32–60) were cultured according to previous reports. As described previously, RPE-J cells (passage number 79-92) were cultured in DMEM with 4% FBS, 20 mM NaHCO3, and 0.1 mM non-essential amino acid (FUJIFILM Wako Pure Chemical, Osaka, Japan) containing 0.16 mM benzylpenicillin potassium and 0.17 mM streptomycin sulfate. In accordance with established protocols for the uptake study, the cells were seeded at a density of 1.0 × 10^5 cells/well onto a collagen I-coated 24-well plate (BioCoat™ Collagen I Cellware, Corning, Corning, NY, USA) and cultured for 2 days, at 33 °C, under 5% CO2/air. Referring to the previous reports, we started the uptake reaction, and the details of the procedure are included in the Supplemental Materials.
(§2) Cell/medium ratio = [^3H]compound (dpm) per cell protein (mg)/[^3H]compound (dpm) per medium (µL)(2) […]
(§3) 7.4) three times at 37°C.
(§4) and KHCO3, respectively. Cl--free ECF buffer was prepared by replacing equimolar
(§5) protein assay kit (Bio-Rad, Hercules, CA, USA).

[2] = tested on: TR-iBRB2 cells; assay: Amantadine uptake by TR-iBRB2 cells (inner BRB model); type: in vitro ADME, rat
Description: as §1
(§6) Cell/medium ratio = [^3H]compound (dpm) per cell protein (mg)/[^3H]compound (dpm) per medium (µL)(2)
(§7) Kinetic parameters for cell uptake, such as the maximal uptake rate (Vmax), Michaelis–Menten constant (Km), and non-saturable uptake clearance (Kd), were obtained by using the nonlinear least-squares regression analysis program (MULTI) with Equations (3)–(5), where the uptake rate of the test compound and its concentration were V and S, respectively. V = (Vmax × S)/(Km + S)(3) V = (Vmax × S)/(Km + S) + Kd × S(4) V = (Vmax1 × S)/(Km1 + S) + (Vmax2 × S)/(Km2 + S)(5) […]
as §3, §4, §5

[3] = tested on: RPE-J cells; assay: Amantadine uptake by RPE-J cells (outer BRB model); type: in vitro ADME, rat; conditions: for Km1 (high-affinity process): 1.67 µM−10 mM
Description: as §1, §6, §7, §3, §4, §5

[4] = tested on: RPE-J cells; assay: Effect of compounds on [3H]amantadine uptake by RPE-J cells; type: in vitro ADME, rat; conditions: for activity at 200 µM / activity at 1000 µM / activity at 2500 µM: Rattus norvegicus, 0.05 h, read-out: [3H]amantadine uptake, % of Control, RPE-J
Description: as §1, §2, §3, §4, §5

[5] = cited from earlier work
[6] = set-up: method as in ref 31 = [31]; 31. Grabowski T. Gumulka S.W. Borucka B. Raszewski W. Analysis relationships between pharmacokinetic parameters in silico/in vivo of selected antiviral drugs based on structural analysis Adv. Clin. Ex; conditions: cited from earlier work
[7] = target: NMDA receptors; set-up: method as in ref 47 (Parsons et al.); conditions: ref 47 (Parsons et al.); cited from earlier work
[8] = pharmacotherapy for Parkinson's disease; cited from earlier work
[9] = tested on: retina (blood–retinal barrier); assay: In vivo blood-to-retina transport, retinal uptake index (RUI) method; conditions: co-administration of 50 mM compound, rat
[10] = tested on: TR-iBRB2 cells; conditions: read-out: Km for uptake by TR-iBRB2 cells; cited from earlier work
[11] = tested on: RPE-J cells; assay: Verapamil uptake by RPE-J cells, effect of amantadine; type: in vitro ADME, rat
Description: as §1, §6, §7, §3, §4, §5

[12] = compound 0.2 mM, [3H]amantadine 1.67 µM, 3 min, 37 °C
[13] = pretreatment 30 mM NH4Cl, 15 s, 37 °C
[14] = compound 2.5 mM, [3H]amantadine 1.67 µM, 3 min, 37 °C
[15] = compound 1.0 mM, [3H]amantadine 1.67 µM, 3 min, 37 °C

## CC(=O)Nc1nnc(S(N)(=O)=O)s1 [Acetazolamide]
[1]; [12]
  [3H]amantadine uptake, % of Control, TR-iBRB2: 90.9 ± 3.8 % of Control

## NC12CC3CC(CC(C3)C1)C2 [Amantadine]
[2]
  reduction of uptake at extracellular pH 6.4: 64%
[2]; 4 °C vs 37 °C
  reduction of uptake at 4 °C: 86%
[2]; 37 °C, 3 min, 1.67 to 1000 µM
  Km: 79.4 µM
  Vmax: 1.36 ± 0.38 nmol/(min·mg protein)
[2]; 3 min, 37 °C
  reduction of uptake in Cl−-free buffer: 38%
[2]; [3H]amantadine 1.67 µM, 37 °C
  initial uptake rate: 14.0 ± 4.1 µL/(min·mg protein)
[2]; acute 30 mM NH4Cl, 15 s, 37 °C
  decrease of uptake at alkalized intracellular pH: 80%
[2]; [13]
  increase of uptake at acidified intracellular pH: 90%
[3]
  Km2 (low-affinity process): 9830 ± 1620 µM
  Vmax1 (high-affinity process): 0.914 ± 0.510 nmol/(min·mg protein)
  Vmax2 (low-affinity process): 85.3 ± 11.4 nmol/(min·mg protein)
  contribution of the high-affinity process: 54%
  contribution of the low-affinity process: 46%
  decrease of uptake at extracellular pH 6.4: 32%
  increase of uptake at extracellular pH 8.4: 25%
  Km1 (high-affinity process): 90.5 ± 49.6 µM
[3]; listed as amantadine
  Km1 (high-affinity process): 90.5 µM
  Km2 (low-affinity process): 9830 µM
[3]; 4 °C vs 37 °C
  reduction of uptake at 4 °C: 87%
[3]; [3H]amantadine 1.67 µM, 37 °C
  initial uptake rate: 15.9 ± 0.3 µL/(min·mg protein)
[3]; acute 30 mM NH4Cl, 15 s, 37 °C
  decrease of uptake at alkalized intracellular pH: 78%
[3]; [13]
  increase of uptake at acidified intracellular pH: 18%
[1]
  activity at 200 µM: 34.1 ± 4.1%
[4]
  activity at 200 µM: 89.9 ± 5.6%
  activity at 1000 µM: 21.3 ± 3.1%
[5]
  pKa: 10.1
[6]
  log D: 0.176
[7]
  IC50: 20 µM
[8]
  plasma concentration range: 600 to 29000 nM
[9]
  decrease of [3H]amantadine RUI: 44%

## C[N+](C)(C)CCO [Choline]
[1]
  activity at 200 µM: 101 ± 8%
[4]
  activity at 200 µM: 124 ± 39%

## CN/C(=N/CCSCc1nc[nH]c1C)NC#N [Cimetidine]
[1]
  [3H]amantadine uptake, % of Control, TR-iBRB2: 97.6 ± 24.7 % of Control
[4]; [12]
  [3H]amantadine uptake, % of Control, RPE-J: 106 ± 5 % of Control

## Clc1cccc(Cl)c1N=C1NCCN1 [Clonidine]
[1]
  activity at 200 µM: 42.1 ± 12.1%
[1]; compound 0.2 mM
  reduction of [3H]amantadine uptake by TR-iBRB2 cells: more than 58%
[4]
  activity at 200 µM: 71.6 ± 4.7%
  activity at 1000 µM: 30.8 ± 4%
[10]
  Km: 286 µM

## CCN1/C(=C/c2ccc3ccccc3[n+]2CC)C=Cc2ccccc21.[I-] [Decynium-22]
[1]; [12]
  [3H]amantadine uptake, % of Control, TR-iBRB2: 106 ± 31 % of Control
[4]; [12]
  [3H]amantadine uptake, % of Control, RPE-J: 86.7 ± 41.9 % of Control
[4]; compound 0.5 mM, [3H]amantadine 1.67 µM, 3 min, 37 °C
  [3H]amantadine uptake, % of Control, RPE-J: 136 ± 8 % of Control

## CNCCCN1c2ccccc2CCc2ccccc21 [Desipramine]
[1]; [12]
  [3H]amantadine uptake, % of Control, TR-iBRB2: 7.05 ± 0.57 % of Control
[4]; [12]
  [3H]amantadine uptake, % of Control, RPE-J: 10.7 ± 5.6 % of Control

## N#CC(C#N)=NNc1ccc(OC(F)(F)F)cc1 [FCCP, carbonyl cyanide-p-trifluoromethoxyphenylhydrazone]
[1]
  decrease of [3H]amantadine uptake: 50%

## O=C(O)[C@H](O)[C@@H](O)[C@H](O)[C@H](O)CO [Gluconate]
[1]; [12]
  [3H]amantadine uptake, % of Control, TR-iBRB2: 91.7 ± 21.7 % of Control
[4]; [12]
  [3H]amantadine uptake, % of Control, RPE-J: 86.2 ± 23.4 % of Control

## NCC(=O)O [Glycine]
[1]; [14]
  [3H]amantadine uptake, % of Control, TR-iBRB2: 102 ± 4 % of Control
[4]; [14]
  [3H]amantadine uptake, % of Control, RPE-J: 116 ± 13 % of Control

## CN(C)CCCN1c2ccccc2CCc2ccccc21 [Imipramine]
[1]
  activity at 200 µM: 8.37 ± 1.43%
[4]
  activity at 200 µM: 16.9 ± 5.2%

## N=C(N)NCCC[C@H](N)C(=O)O [L-Arginine]
[1]
  activity at 2500 µM: 127 ± 15%
[4]
  activity at 2500 µM: 150 ± 38%

## N[C@@H](CC(=O)O)C(=O)O [L-Aspartic acid]
[1]
  activity at 2500 µM: 101 ± 23%
[4]
  activity at 2500 µM: 79.5 ± 12.7%

## C[N+](C)(C)C[C@H](O)CC(=O)[O-] [L-Carnitine]
[1]; [12]
  [3H]amantadine uptake, % of Control, TR-iBRB2: 111 ± 35 % of Control
[1]; [14]
  [3H]amantadine uptake, % of Control, TR-iBRB2: 99.5 ± 2.3 % of Control
[4]; [12]
  [3H]amantadine uptake, % of Control, RPE-J: 95.1 ± 5.2 % of Control
[4]; [14]
  [3H]amantadine uptake, % of Control, RPE-J: 119 ± 28 % of Control

## N[C@@H](CCC(=O)O)C(=O)O [L-Glutamic acid]
[1]
  activity at 2500 µM: 80.2 ± 10%
[4]
  activity at 2500 µM: 84.5 ± 16.4%

## CC(C)C[C@H](N)C(=O)O [L-Leucine]
[1]; [14]
  [3H]amantadine uptake, % of Control, TR-iBRB2: 112 ± 17 % of Control
[4]; [14]
  [3H]amantadine uptake, % of Control, RPE-J: 113 ± 16 % of Control

## C[n+]1ccc(-c2ccccc2)cc1 [MPP^+, 1-methyl-4-phenylpyridinium]
[1]; [12]
  [3H]amantadine uptake, % of Control, TR-iBRB2: 106 ± 31 % of Control
[4]; [12]
  [3H]amantadine uptake, % of Control, RPE-J: 75.5 ± 5.0 % of Control
[4]; [15]
  [3H]amantadine uptake, % of Control, RPE-J: 91.9 ± 5.6 % of Control

## CC12CC3CC(C)(C1)CC(N)(C3)C2 [Memantine]
[1]
  activity at 200 µM: 16.7 ± 2.2%
[4]
  activity at 200 µM: 123 ± 38%
  activity at 1000 µM: 27.1 ± 2.6%

## Nc1ccc(C(=O)NCC(=O)O)cc1 [PAH, p-aminohippuric acid]
[1]
  activity at 200 µM: 85.8 ± 10.8%
[4]
  activity at 200 µM: 139 ± 33%

## CC(C)NCC(O)COc1cccc2ccccc12 (centres unmarked) [Propranolol]
[1]; compound 0.2 mM
  reduction of [3H]amantadine uptake by TR-iBRB2 cells: more than 58%
[1]; [12]
  [3H]amantadine uptake, % of Control, TR-iBRB2: 8.61 ± 0.75 % of Control
[4]; [12]
  [3H]amantadine uptake, % of Control, RPE-J: 15.7 ± 5.9 % of Control
[10]
  Km: 237 µM

## COc1ccc(CN(CCN(C)C)c2ccccn2)cc1 [Pyrilamine]
[1]
  activity at 200 µM: 20.9 ± 1.8%
[4]
  activity at 200 µM: 77.8 ± 38.4%
  activity at 1000 µM: 18.2 ± 1.7%

## CCc1nc(N)nc(N)c1-c1ccc(Cl)cc1 [Pyrimethamine]
[1]
  activity at 200 µM: 44.3 ± 8.8%
[4]
  activity at 200 µM: 88.9 ± 3.3%

## C=C[C@H]1C[N@@]2CC[C@H]1C[C@@H]2[C@@H](O)c1ccnc2ccc(OC)cc12 [Quinidine]
[1]; [12]
  [3H]amantadine uptake, % of Control, TR-iBRB2: 13.7 ± 1.8 % of Control
[4]; [12]
  [3H]amantadine uptake, % of Control, RPE-J: 34.1 ± 3.0 % of Control

## NCCc1c[nH]c2ccc(O)cc12 [Serotonin]
[1]
  activity at 200 µM: 126 ± 60%
[4]
  activity at 200 µM: 158 ± 52%

## CC[N+](CC)(CC)CC [TEA, tetraethylammonium]
[1]
  [3H]amantadine uptake, % of Control, TR-iBRB2: 117 ± 45 % of Control
[4]; [12]
  [3H]amantadine uptake, % of Control, RPE-J: 87.7 ± 11.8 % of Control
[4]; [15]
  [3H]amantadine uptake, % of Control, RPE-J: 81.8 ± 10.3 % of Control

## CC(C)(C)NC[C@H](O)COc1nsnc1N1CCOCC1 [Timolol]
[1]; [12]
  [3H]amantadine uptake, % of Control, TR-iBRB2: 34.6 ± 10.6 % of Control
[4]; [12]
  [3H]amantadine uptake, % of Control, RPE-J: 59.1 ± 5.1 % of Control

## COc1ccc(CCN(C)CCCC(C#N)(c2ccc(OC)c(OC)c2)C(C)C)cc1OC (centres unmarked) [Verapamil]
[1]
  [3H]amantadine uptake, % of Control, TR-iBRB2: 22.1 ± 6.2 % of Control
[4]
  [3H]amantadine uptake, % of Control, RPE-J: 20.5 ± 4.8 % of Control
[11]
  Km: 55.6 ± 5.2 µM
  Vmax: 6.31 ± 0.35 nmol/(min·mg protein)
  reduction of [3H]verapamil uptake by unlabeled verapamil: 86%

— paper PMC8469395 (Pharmaceutics, 2021)
